# Experimental data taken from patent publication US20220409692A1, “Systems Chemico-Pharmacology Drugs and Methods of Use” (The Medical College of Wisconsin, priority 2019, published 2022).
# Peptide text beside a SMILES is read from it.
# Assays:
# MPO = biological target: T1, MPO (Homo sapiens, UniProt P05164); test: KYC/AA(n) peptide inhibition of MPO HOCl production (TMB assay) at varied pH; assay type: biochemical
# T1 sequence (P05164 49-745): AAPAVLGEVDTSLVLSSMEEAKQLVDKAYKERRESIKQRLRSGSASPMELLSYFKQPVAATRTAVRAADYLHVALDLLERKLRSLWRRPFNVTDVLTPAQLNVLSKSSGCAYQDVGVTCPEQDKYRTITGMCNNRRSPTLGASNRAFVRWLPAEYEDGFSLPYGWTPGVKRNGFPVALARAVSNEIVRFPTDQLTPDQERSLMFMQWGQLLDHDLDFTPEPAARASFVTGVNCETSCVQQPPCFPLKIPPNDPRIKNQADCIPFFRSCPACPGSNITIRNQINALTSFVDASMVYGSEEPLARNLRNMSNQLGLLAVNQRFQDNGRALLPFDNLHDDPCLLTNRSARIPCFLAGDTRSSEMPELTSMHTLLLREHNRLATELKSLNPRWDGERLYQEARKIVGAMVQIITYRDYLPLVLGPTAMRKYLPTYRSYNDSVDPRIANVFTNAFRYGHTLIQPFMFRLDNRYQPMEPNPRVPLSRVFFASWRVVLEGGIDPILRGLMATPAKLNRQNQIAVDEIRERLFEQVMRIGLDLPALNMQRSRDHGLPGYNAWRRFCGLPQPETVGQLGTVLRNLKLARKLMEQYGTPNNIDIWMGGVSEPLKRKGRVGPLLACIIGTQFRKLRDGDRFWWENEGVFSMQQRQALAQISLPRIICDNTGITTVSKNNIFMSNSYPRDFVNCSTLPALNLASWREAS
# From the text: Small peptides of generic formula AA(n) (where AA represents different amino acids, and n can be 2-5) are both substrates and inhibitors of MPO (alternatively, inhibitors of EPO). These peptides are […] at the active site of MPO, which subsequently decreases the production of toxic oxidants that includes but not restricted to hypochlorous acid. All MPO activities (i.e., hypochlorous acid production) described herein were quantified by the 3,3′,5,5′-tetramethylbenzidine (TMB) assay. […] The free radical itself may act as an activated species, and is stable enough to react with proximal proteins, peptides, metabolites or small molecules to effect further change. The free radical is not limited to a single target, but may effect change multiple independent targets. In a non-limiting example, the free radical goes on to form a hetero- or homo dimer via an oxidized —S—S— disulfide (or di-Selenium) linkage. Finally, the more interactions between the peptide and active site of MPO that occurs the lower numerical IC50 value of the peptide inhibitor.
# KYZ is […] in the presence of MPO, which subsequently decreases the production of hypochlorous acid. All MPO activities (i.e., hypochlorous acid production) were quantified by the 3,3′,5,5′-tetramethylbenzidine (TMB) assay. The tripeptide KXZ, requires amino acid #1 (AA1, K) to be a native amino acid or an artificial amino acid (aa) with a basic side-chain such as an amine functional group (e.g., Lysine (K)). Amino acid #2 (AA2, X) is a native or artificial amino acid that may contain a polar, non-polar, or aromatic amino acid.
# control mice = test: Increasing single IP doses of KYC in control mice; assay type: in vivo, mouse; conditions: unpublished, personal observations
# adult mice = test: Review of KYC doses in previous studies in adult mice; assay type: in vivo, mouse; conditions: 15 mg/kg twice per day vs 800 mg/kg
# Procedure: No KYC dose-response studies were performed in neonatal rat pups in preparation for the current study. Instead, we decided to treat neonatal rat pups empirically with KYC at 5 mg/kg twice per day based on published and unpublished data in adult mice. […] The dose of KYC used in the current study is based on our experience in treating chronic inflammation in other disease states and is within the range that we consider appropriate for neonatal rat pups and adult rats.
# [1] = tested on: lung lysates of neonatal rat pups; test: Hyperoxia-induced BPD in neonatal rat pups: immunoblot, affinity blot and pulldown analysis of lung lysates; conditions: for Nrf2 activation: lung lysates
# Procedure: The dose of KYC (5 mg/kg twice per day) was chosen based on experience treating chronic inflammation in other disease states (58, 60, 61). […] Equal volumes of PBS were injected i.p. into the remaining half of the pups as an injection control. Pups were euthanized on P10 with carbon dioxide and lungs removed en bloc. A small cut was created on the left atrium and ice-cold normal saline was gently infused through the right ventricle to flush blood from the lungs before inflation for histology or snap-frozen in liquid nitrogen for protein studies. Pups from at least three litters were used in each experiment.
# Immunoblot Analysis: Whole lung lysates were obtained by homogenizing in MOPS buffer (20 mM 3-N-morpholino-propanesulfonic acid, 2 mM EGTA, 5 mM EDTA, 30 mM NaF, 10 mM β-glycerophosphate, 10 mM Na pyrophosphate, 2 mM Na orthovanadate, 1 mM PMSF, 0.5% NP-40, 1% protease inhibitor cocktail, and 1% phosphatase inhibitor cocktails 2 and 3, pH 7.0) by Bullet Blender (Next Advance, Inc., Averill Park, N.Y.). For protein immunoblots, 30 μg of protein lysate was separated by SDS-PAGE, transferred to nitrocellulose membranes (0.22 μm), and then probed with the appropriate primary antibodies overnight at 4° C. on a continuously rocking platform. Signals were generated after incubation with horseradish peroxidase-conjugated goat anti-rabbit or anti-mouse IgG (1:8,000) using Western Bright ECL Chemiluminescent HRP Substrate (Advansta Inc., Menlo Park, Calif.). Integrated optical density (IOD) was calculated using ImageJ software and normalized to β-actin, a loading control.
# [2] = hyperoxic lungs, KYC vs PBS, P10
# [3] = hyperoxic pups treated with KYC, P10, PBS 1.0±0.2
# [4] = hyperoxic pups, KYC vs PBS, P10
# [5] = lungs of hyperoxic pups, KYC vs PBS
structure (smiles),measurement,setting,value
"CC(=O)N[C@@H](CCCCN)C(=O)N[C@@H](Cc1ccc(O)cc1)C(=O)N[C@@H](CS)C(N)=O [KYC, N-acetyl lysyltyrosylcysteine amide] (Ac-Lys-Tyr-Cys-NH2)",IC50 values compared with KLC,"MPO; pH values of 6.5, 7.4 and 8.0",superior
same,"IC50 values, inhibition of MPO HOCl production",MPO; varied pH,changing of pH has limited effect on the IC50 values
same,single dose at which observable adverse effects were induced,control mice,800 mg/kg
same,factor by which the higher dose is below the KYC level observed to induce adverse effects,adult mice,more than 26 times
same,"CD31 levels (immunoblot, relative)","[1]; KYC-treated HOX group, P10, PBS-treated HOX 1.0±0.1",1.2±0.3
same,Nrf2 levels (FIG. 22),[1]; hyperoxia exposed rat pup lungs,decreased Nrf2 levels
same,"NO2-Tyr levels (immunoblot, relative)","[1]; hyperoxia pups, KYC 5 mg/kg twice per day i.p., P10, PBS 1.0±0.1",0.6±0.2
same,"MPO levels (immunoblot, relative)","[1]; hyperoxia pups, KYC 5 mg/kg twice per day i.p., P10, PBS 1.0±0.3",0.6±0.1
same,cell death in lungs (FIG. 20),[1]; hyperoxia-exposed rat pup lungs,reduces cell death
same,reduction of Cl-Tyr formation,[1]; [2],approximately 27%
same,reduction of MPO protein,[1]; [2],approximately 50%
same,reduction of NO2-Tyr,[1]; [2],approximately 32%
same,"TLR4 expression in lungs (immunoblot, relative)","[1]; hyperoxic pups treated with KYC, P10, PBS 1.0±0.1",0.8±0.2
same,"HMGB1 levels in lungs (immunoblot, relative)",[1]; [3],0.6±0.2
same,"RAGE expression in lungs (immunoblot, relative)",[1]; [3],0.5±0.2
same,HMGB1 isoform in lung lysates (non-acetylated vs lysyl-acetylated),"[1]; hyperoxic pups, KYC vs PBS",shifted the HMGB1 in lung lysates from the non-acetylated (HMGB1) to the lysyl-acetylated (Ac-HMGB1) isoform
same,reduction of pulmonary Cox1,"[1]; hyperoxic pups, KYC vs PBS",20-30%
same,reduction of pulmonary Cox2,"[1]; hyperoxic pups, KYC vs PBS",60-70%
same,decrease of HMGB1 levels in lung homogenates/lysates,[1]; [4],approximately 38%
same,increase of CD31 (endothelial cells),[1]; [4],approximately 23%
same,reduction of RAGE expression,[1]; [4],60%
same,sulfonyl HMGB1 levels,"[1]; hyperoxic pups, relative to PBS-treated",increased sulfonyl HMGB1 levels
same,S-glutathionylation of Keap1,[1]; lung lysates from hyperoxic pups,increased
same,HMGB1 association with TLR4 (HMGB1 pulldown),"[1]; lung lysates from hyperoxic pups, KYC vs PBS",decreased HMGB1 association with TLR4
same,B-KYC thiylation of Keap1,"[1]; lung lysates from hyperoxic pups, KYC P2-P9 then once B-KYC 5 mg/kg",increased B-KYC thiylation of Keap1
same,Nrf2 activation,[1]; hyperoxic pups,increased Nrf2 activation in lung lysates from hyperoxic pups
same,Nrf2 activation,[1]; normoxic pups,increased Nrf2 activation in lung lysates
same,GST expression,[1]; [5],increased
same,HMGB1 association with RAGE (HMGB1 pulldown),[1]; [5],reduced
same,HO-1 expression,[1]; [5],increased
same,Trx expression,[1]; [5],increased
